Experimental data as given in ChEMBL document CHEMBL1833945, “Synthesis and anticonvulsant activity of new N-Mannich bases derived from 5-cyclopropyl-5-phenyl- and 5-cyclopropyl-5-(4-chlorophenyl)-imidazolidine-2,4-diones” (Bioorg Med Chem, 2011).
Activity calls are given as the source filed them. The rule behind the calls is not given here.

Legend:
[1] = test system: Mus musculus; test: Anticonvulsant activity in CF1 albino mouse assessed as protection against maximal electroshock-induced seizures at 300 mg/kg, ip after 0.5 hrs; type: functional, organism-based; design: dose 300 mg/kg
[2] = test system: Mus musculus; test: Anticonvulsant activity in CF1 albino mouse assessed as protection against subcutaneous pentylenetetrazole-induced seizures at 300 mg/kg, […] after 4 hrs; type: functional, organism-based; design: dose 300 mg/kg
[3] = test system: Mus musculus; test: Neurotoxicity in ip dosed CF1 albino mouse assessed as minimum dose required to cause impair in motor coordination after 4 hrs by rotarod test; type: toxicity, organism-based; settings: in vivo
[4] = test system: Mus musculus; test: Neurotoxicity in ip dosed CF1 albino mouse assessed as minimum dose required to cause impair in motor coordination after 0.5 hrs by rotarod test; type: toxicity, organism-based; settings: in vivo
[5] = Lipophilicity, log P of compound; type: physicochemical; settings: octanol/water
[6] = test system: Mus musculus; test: Anticonvulsant activity in ip dosed CF1 albino mouse assessed as protection against maximal electroshock-induced seizures after 4 hrs; type: functional; settings: read-out: MED
[7] = test system: Rattus norvegicus; test: Neurotoxicity in Sprague-Dawley albino rat assessed as motor impairment at 30 mg/kg, po after 2 hrs by rotarod test; type: toxicity, organism-based; design: dose 30 mg/kg, route oral; settings: in vivo
[8] = test system: Rattus norvegicus; test: Neurotoxicity in Sprague-Dawley albino rat assessed as motor impairment at 30 mg/kg, po after 0.5 hrs by rotarod test; type: toxicity, organism-based; design: dose 30 mg/kg, route oral; settings: in vivo
[9] = Neurotoxicity in oral dosed Sprague-Dawley albino rat assessed as motor impairment by rotarod test; type: toxicity, organism-based; settings: in vivo
[10] = test system: Mus musculus; test: Anticonvulsant activity in ip dosed CF1 albino mouse assessed as protection against maximal electroshock-induced seizures after 0.5 hrs; type: functional; settings: read-out: MED
[11] = test system: Rattus norvegicus; test: Anticonvulsant activity in po dosed Sprague-Dawley albino rat assessed as time to peak effect; type: functional
[12] = test system: Rattus norvegicus; test: Anticonvulsant activity in Sprague-Dawley albino rat assessed as protection against maximal electroshock-induced seizures at 30 mg/kg, po after 0.5 hrs; type: functional, organism-based; design: dose 30 mg/kg
[13] = species: Rattus norvegicus; test: Protective index, ratio of TD50 for neurotoxicity in Sprague-Dawley albino rat to ED50 for inhibition of maximal electroshock-induced seizures in Sprague-Dawley albino rat; type: functional
[14] = test system: Rattus norvegicus; test: Neurotoxicity in Sprague-Dawley albino rat assessed as motor impairment at 30 mg/kg, po after 1 hrs by rotarod test; type: toxicity, organism-based; design: dose 30 mg/kg, route oral; settings: in vivo
[15] = test system: Rattus norvegicus; test: Anticonvulsant activity in po dosed Sprague-Dawley albino rat assessed as protection against subcutaneous pentylenetetrazole-induced seizures; type: functional
[16] = test system: Rattus norvegicus; test: Neurotoxicity in Sprague-Dawley albino rat assessed as motor impairment at 30 mg/kg, po after 4 hrs by rotarod test; type: toxicity, organism-based; design: dose 30 mg/kg, route oral; settings: in vivo
[17] = test system: Rattus norvegicus; test: Neurotoxicity in Sprague-Dawley albino rat assessed as motor impairment at 30 mg/kg, po after 0.25 hrs by rotarod test; type: toxicity, organism-based; design: dose 30 mg/kg, route oral; settings: in vivo
[18] = test system: Mus musculus; test: Neurotoxicity in CF1 albino mouse assessed as impair in motor coordination at 300 mg/kg, ip after 4 hrs by rotarod test; type: toxicity, organism-based; design: dose 300 mg/kg, route intraperitoneal; settings: in vivo
[19] = test system: Mus musculus; test: Neurotoxicity in CF1 albino mouse assessed as impair in motor coordination at 300 mg/kg, ip after 0.5 hrs by rotarod test; type: toxicity, organism-based; design: dose 300 mg/kg, route intraperitoneal; settings: in vivo
[20] = test system: Mus musculus; test: Anticonvulsant activity in ip dosed CF1 albino mouse assessed as protection against subcutaneous pentylenetetrazole-induced seizures after 0.5 hrs; type: functional; settings: read-out: MED
[21] = test system: Mus musculus; test: Toxicity in subcutaneous pentylenetetrazole-induced CF1 albino mouse assessed as myoclonic jerks at 100 mg/kg, ip after 4 hrs; type: organism-based; design: dose 100 mg/kg; settings: in vivo, sc
[22] = test system: Mus musculus; test: Toxicity in subcutaneous pentylenetetrazole-induced CF1 albino mouse assessed as myoclonic jerks at 100 mg/kg, ip after 0.5 hrs; type: organism-based; design: dose 100 mg/kg; settings: in vivo, sc
[23] = test system: Mus musculus; test: Neurotoxicity in CF1 albino mouse assessed as loss of rotard grasping at 300 mg/kg, ip after 4 hrs by rotarod test; type: toxicity, organism-based; design: dose 300 mg/kg, route intraperitoneal; settings: in vivo
[24] = test system: Mus musculus; test: Neurotoxicity in CF1 albino mouse assessed as minimum dose causing loss of righting reflex at 300 mg/kg, ip after 4 hrs by rotarod test; type: toxicity, organism-based; design: dose 300 mg/kg, route intraperitoneal; settings: in vivo
[25] = test system: Mus musculus; test: Neurotoxicity in CF1 albino mouse assessed as loss of rotard grasping at 300 mg/kg, ip after 0.5 hrs by rotarod test; type: toxicity, organism-based; design: dose 300 mg/kg, route intraperitoneal; settings: in vivo
[26] = test system: Mus musculus; test: Anticonvulsant activity in ip dosed CF1 albino mouse assessed as protection against subcutaneous pentylenetetrazole-induced seizures after 4 hrs; type: functional; settings: read-out: MED
[27] = test system: Mus musculus; test: Toxicity in subcutaneous pentylenetetrazole-induced CF1 albino mouse assessed as myoclonic jerks at 300 mg/kg, ip after 4 hrs; type: organism-based; design: dose 300 mg/kg; settings: in vivo, sc
[28] = test system: Rattus norvegicus; test: Anticonvulsant activity in Sprague-Dawley albino rat assessed as protection against maximal electroshock-induced seizures at 30 mg/kg, po after 0.25 hrs; type: functional, organism-based; design: dose 30 mg/kg
[29] = test system: Rattus norvegicus; test: Anticonvulsant activity in Sprague-Dawley albino rat assessed as protection against maximal electroshock-induced seizures at 30 mg/kg, po after 4 hrs; type: functional, organism-based; design: dose 30 mg/kg

SMILES	logP [5]	Activity [1]	Activity [2]	MTC [3]	MTC [4]	minimal effective dose [6]	minimal effective dose [10]	Activity [18]	Activity [19]	other results
O=C1NC(=O)C(c2ccccc2)(c2ccccc2)N1 [PHENYTOIN]	–	–	inactive	100 mg/kg	100 mg/kg	30 mg/kg	30 mg/kg	–	–	Activity [7]: Non-toxic; Activity [8]: Non-toxic; TD50 [9]: > 1000 mg/kg; Time [11]: 1 h; Activity [12]: Active; PI [13]: >35.58; Activity [14]: Non-toxic; ED50 [15]: > 500 mg/kg; Activity [16]: Non-toxic; Activity [17]: Non-toxic
O=C1NC(c2ccccc2)(C2CC2)C(=O)N1CN1CCN(c2ccccc2)CC1 (stereo unspecified)	–	inactive	inactive	–	–	100 mg/kg	–	Non-toxic	Non-toxic	minimal effective dose [20]: 100 mg/kg
O=C1NC(c2ccc(Cl)cc2)(C2CC2)C(=O)N1CN1CCN(c2ccccc2)CC1 (stereo unspecified)	–	inactive	inactive	–	–	100 mg/kg	–	–	Non-toxic	Activity [23]: Toxic
O=C1NC(c2ccc(Cl)cc2)(C2CC2)C(=O)N1CN1CCc2ccccc2C1 (stereo unspecified)	3.71	inactive	inactive	–	–	300 mg/kg	–	Non-toxic	Non-toxic	–

Second part, led by results:

logP [5]	SMILES	Activity [1]	Activity [2]	MTC [3]	MTC [4]	minimal effective dose [6]	minimal effective dose [10]	Activity [18]	Activity [19]	other results
3.65	O=C(OCc1ccccc1)N1CCN(CN2C(=O)NC(c3ccc(Cl)cc3)(C3CC3)C2=O)CC1 (stereo unspecified)	inactive	inactive	300 mg/kg	300 mg/kg	100 mg/kg	–	–	–	–
1.46	COCCN1CCN(CN2C(=O)NC(c3ccccc3)(C3CC3)C2=O)CC1 (stereo unspecified)	–	–	30 mg/kg	30 mg/kg	100 mg/kg	100 mg/kg	–	–	Activity [21]: Toxic; Activity [22]: Toxic
3.3	O=C1NC(c2ccccc2)(C2CC2)C(=O)N1CN1CCN(C/C=C/c2ccccc2)CC1 (stereo unspecified)	–	–	–	–	100 mg/kg	100 mg/kg	–	–	minimal effective dose [20]: 100 mg/kg; Activity [24]: Toxic; Activity [25]: Toxic; minimal effective dose [26]: 300 mg/kg
3.02	O=C1NC(c2ccccc2)(C2CC2)C(=O)N1CN1CCc2ccccc2C1 (stereo unspecified)	–	–	–	100 mg/kg	300 mg/kg	300 mg/kg	Non-toxic	–	Activity [7]: Non-toxic; Activity [8]: Non-toxic; Activity [12]: inactive; Activity [27]: Toxic; Activity [14]: Non-toxic; Activity [28]: inactive; Activity [29]: Active; Activity [16]: Non-toxic; Activity [17]: Non-toxic
